Source: ChEMBL document CHEMBL1201862, “PubChem BioAssay data set” (2004)
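In this assay, cells in 96-well plates receive the compound at five concentrations for 48 hours. Endpoints are linearly interpolated between the surrounding concentrations. GI50: concentration for 50% inhibition of growth.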 Calls of active or inactive are those of the source. Cut-off read from the data, not from the text of the source: active = GI50 up to about 1.1 µM and inactive = higher.

Assays:
Assay in all cases: DTP human tumour cell line panel, 48 h
PC-3 = system: PC-3
SN12C = system: SN12C
Malme-3M = system: Malme-3M
CAKI-1 = system: CAKI-1
HL-60 = system: HL-60
SNB-75 = system: SNB-75
SF-268 = system: SF-268
HCT-15 = system: HCT-15
MCF7 = system: MCF7
HOP-62 = system: HOP-62
K562 = system: K562
NCI/ADR-RES = system: NCI/ADR-RES
SK-MEL-2 = system: SK-MEL-2
RXF 393 = system: RXF 393
SF-539 = system: SF-539
UO-31 = system: UO-31
IGROV-1 = system: IGROV-1
U-251 = system: U-251
NCI-H460 = system: NCI-H460
A498 = system: A498

Row | SMILES | GI50 (PC-3) | GI50 (SN12C) | GI50 (Malme-3M) | GI50 (CAKI-1) | GI50 (HL-60) | GI50 (SNB-75) | GI50 (SF-268) | GI50 (HCT-15) [µM] | GI50 (MCF7) | GI50 (HOP-62) | GI50 (K562) | GI50 (NCI/ADR-RES) | GI50 (SK-MEL-2) | GI50 (RXF 393) | GI50 (SF-539) | GI50 (UO-31) | GI50 (IGROV-1) | GI50 (U-251) | GI50 (NCI-H460) | GI50 (A498)
1 | CC(C)(C)OC(=O)N1CCC2(C)CC(=O)CC=C12 (stereo not drawn) | > 100 µM (inactive) | > 100 µM (inactive) | > 100 µM (inactive) | > 100 µM (inactive) | > 100 µM (inactive) | > 100 µM (inactive) | > 100 µM (inactive) | > 100 | > 100 µM (inactive) | > 100 µM (inactive) | > 100 µM (inactive) | > 100 µM (inactive) | > 100 µM (inactive) | > 100 µM (inactive) | > 100 µM (inactive) | > 100 µM (inactive) | > 100 µM (inactive) | > 100 µM (inactive) | > 100 µM (inactive) | 
2 | COc1ccc(/C=N/NS(=O)(=O)c2ccc(/C=C3\NC(=O)NC3=O)cc2)cc1 | > 100 µM (inactive) | > 100 µM (inactive) | > 100 µM (inactive) | > 100 µM (inactive) | 98.6 µM (inactive) | 23.9 µM (inactive) | 28.1 µM (inactive) | > 100 | > 100 µM (inactive) | > 100 µM (inactive) | > 100 µM (inactive) | > 100 µM (inactive) | > 100 µM (inactive) | > 100 µM (inactive) |  | > 100 µM (inactive) | 87.5 µM (inactive) | 45.2 µM (inactive) | > 100 µM (inactive) | > 100 µM (inactive)
3 | COc1ccc2[nH]c3c(c2c1)CC(=O)N1CCCC(CC3O)C1 (stereo not drawn) | > 100 µM (inactive) | > 100 µM (inactive) | > 100 µM (inactive) | > 100 µM (inactive) |  | > 100 µM (inactive) | > 100 µM (inactive) | > 100 | > 100 µM (inactive) |  | > 100 µM (inactive) | > 100 µM (inactive) | > 100 µM (inactive) |  | > 100 µM (inactive) | > 100 µM (inactive) | > 100 µM (inactive) | > 100 µM (inactive) | > 100 µM (inactive) | > 100 µM (inactive)
4 | C[C@]12CCC(=O)C=C1C[C@@H](O)[C@@H]1[C@@H]2CC[C@@]2(C)[C@H]1CC[C@]2(C)O | > 100 µM (inactive) | > 100 µM (inactive) | > 100 µM (inactive) | > 100 µM (inactive) | > 100 µM (inactive) | > 100 µM (inactive) | > 100 µM (inactive) | > 100 | > 100 µM (inactive) | > 100 µM (inactive) | > 100 µM (inactive) | > 100 µM (inactive) | > 100 µM (inactive) | > 100 µM (inactive) |  | > 100 µM (inactive) | > 100 µM (inactive) | > 100 µM (inactive) | > 100 µM (inactive) | > 100 µM (inactive)
5 | CCCCCCc1cc2cc(-c3cn4c(n3)sc3ccccc34)c(=O)oc2cc1O | > 100 µM (inactive) | > 100 µM (inactive) | 2.36 µM (inactive) | > 100 µM (inactive) | > 60.3 µM (inactive) | > 78.5 µM (inactive) | > 100 µM (inactive) | > 75.7 | > 100 µM (inactive) | 73.1 µM (inactive) | > 100 µM (inactive) | > 100 µM (inactive) | > 100 µM (inactive) | > 48.3 µM (inactive) | > 100 µM (inactive) | > 100 µM (inactive) | > 100 µM (inactive) | > 100 µM (inactive) | > 100 µM (inactive) | 
6 | C[Si](C)(c1ccc(C(=O)O)cc1)c1ccc(C(=O)O)cc1 | > 100 µM (inactive) | > 100 µM (inactive) | > 100 µM (inactive) | > 100 µM (inactive) |  | > 100 µM (inactive) | > 100 µM (inactive) | > 100 | > 100 µM (inactive) | > 100 µM (inactive) | > 100 µM (inactive) | > 100 µM (inactive) | > 100 µM (inactive) | > 100 µM (inactive) | > 100 µM (inactive) |  | > 100 µM (inactive) | > 100 µM (inactive) | > 100 µM (inactive) | > 100 µM (inactive)
7 | Clc1ccccc1CN1COc2c(cc(Cl)c3cccnc23)C1 | 2.57 µM (inactive) | 0.0249 µM (active) | 2.47 µM (inactive) | 4.49 µM (inactive) | 0.398 µM (active) | 5.68 µM (inactive) | 5.18 µM (inactive) | 0.165 | 4.94 µM (inactive) | 3.05 µM (inactive) | 2.99 µM (inactive) | 0.224 µM (active) | 6.19 µM (inactive) | 13.7 µM (inactive) | 2.69 µM (inactive) | 2.89 µM (inactive) | 5.55 µM (inactive) | 3.33 µM (inactive) | 2.75 µM (inactive) | 
8 | CCOC(=O)CC1C(O)C(=O)N(C)C1c1ccccc1 (stereo not drawn) | > 100 µM (inactive) | > 100 µM (inactive) | > 100 µM (inactive) | > 100 µM (inactive) | > 100 µM (inactive) | > 100 µM (inactive) | > 100 µM (inactive) | > 100 | > 100 µM (inactive) | > 100 µM (inactive) | > 100 µM (inactive) | > 100 µM (inactive) | > 100 µM (inactive) | > 100 µM (inactive) | > 100 µM (inactive) | > 100 µM (inactive) | > 100 µM (inactive) | > 100 µM (inactive) |  | 
9 | CC1=C(C(=O)N(C)c2ccc(Cl)c(C(=O)OC(C)C)c2)SCCO1 | 38.5 µM (inactive) | > 100 µM (inactive) | 72.3 µM (inactive) | > 100 µM (inactive) | 33.7 µM (inactive) | 18.7 µM (inactive) | > 100 µM (inactive) | 74 | 66.5 µM (inactive) |  | 29 µM (inactive) | 26.7 µM (inactive) | > 100 µM (inactive) |  | > 100 µM (inactive) | 27.2 µM (inactive) | 98.6 µM (inactive) | 92.3 µM (inactive) | > 100 µM (inactive) | 74.3 µM (inactive)
10 | O=C(NN1C(=O)C=CC1=O)c1ccccc1Nc1ccccc1C(=O)NN1C(=O)C=CC1=O | > 100 µM (inactive) | > 100 µM (inactive) | > 100 µM (inactive) | > 100 µM (inactive) | > 100 µM (inactive) | > 100 µM (inactive) | > 100 µM (inactive) | > 100 | > 100 µM (inactive) | > 100 µM (inactive) | > 100 µM (inactive) | > 100 µM (inactive) | > 100 µM (inactive) | > 100 µM (inactive) | > 100 µM (inactive) | > 100 µM (inactive) | > 100 µM (inactive) | > 100 µM (inactive) | > 100 µM (inactive) | 
11 | CC(C)=CCNc1nc(Cl)nc2[nH]cnc12 | > 100 µM (inactive) | 57.7 µM (inactive) | 86.9 µM (inactive) | > 100 µM (inactive) | > 100 µM (inactive) | > 100 µM (inactive) | 55 µM (inactive) |  | 29.6 µM (inactive) | 27.9 µM (inactive) | 32.1 µM (inactive) | 35.7 µM (inactive) |  | 25.2 µM (inactive) | > 100 µM (inactive) | 37.4 µM (inactive) | > 100 µM (inactive) |  | 16.7 µM (inactive) | 44 µM (inactive)
12 | C[C@@H]1C(=O)O[C@@H]2C[C@@]1(C)[C@@H]1C(=O)C3(O)OC14C2(C)OC(=O)[C@@]4(O)CCC1C3C(O)C=C2CC=CC(=O)[C@@]21C (stereo partly drawn) | 36 µM (inactive) | 41.2 µM (inactive) |  | 21.3 µM (inactive) | 13.4 µM (inactive) | 15.7 µM (inactive) | 26.7 µM (inactive) | 34.4 | 36.3 µM (inactive) | 63.5 µM (inactive) | 23.9 µM (inactive) | > 100 µM (inactive) | 17.9 µM (inactive) | 13.8 µM (inactive) | 25.3 µM (inactive) | 22.5 µM (inactive) | 42.3 µM (inactive) | 30.8 µM (inactive) | 29.9 µM (inactive) | 
13 | CCCCNC(=S)c1ccc(OC(=O)Nc2ccc(Cl)cc2)cc1 | > 100 µM (inactive) |  | 79.8 µM (inactive) | 18.5 µM (inactive) | 8.57 µM (inactive) |  | 49.1 µM (inactive) | 12.2 | 41.7 µM (inactive) | > 100 µM (inactive) | 1.83 µM (inactive) | 12.4 µM (inactive) | 19.3 µM (inactive) |  | > 100 µM (inactive) | 19.7 µM (inactive) | 3.02 µM (inactive) | > 100 µM (inactive) | 10.4 µM (inactive) | 85.1 µM (inactive)
14 | CC(=O)Oc1ccc2c(c1)O/C(=C\c1ccc(N(C)C)cc1)C2=O | > 100 µM (inactive) | 62.7 µM (inactive) |  | > 100 µM (inactive) | 32.7 µM (inactive) | 87.9 µM (inactive) | > 100 µM (inactive) | 67 | > 100 µM (inactive) | > 100 µM (inactive) | 27.9 µM (inactive) | 29.6 µM (inactive) |  | 73.5 µM (inactive) | 26.4 µM (inactive) | 26.3 µM (inactive) | > 100 µM (inactive) | 37.7 µM (inactive) | 70.1 µM (inactive) | 
15 | c1ccc(CN2CCC(=NN3CCCCC3)CC2)cc1 | 54.8 µM (inactive) | > 100 µM (inactive) | > 100 µM (inactive) | > 100 µM (inactive) | 20.1 µM (inactive) | 61.2 µM (inactive) | 88.1 µM (inactive) | > 100 | 43.3 µM (inactive) | > 100 µM (inactive) | 31.1 µM (inactive) | > 100 µM (inactive) | > 100 µM (inactive) | 35.1 µM (inactive) | > 100 µM (inactive) | 64.7 µM (inactive) | > 100 µM (inactive) | 59.6 µM (inactive) | 46.6 µM (inactive) | 
